Laboratory results published in ChEMBL document CHEMBL3046208, “Natural and synthetic podolactones with potential use as natural herbicide models” (2000).
Calls of active or inactive are those of the source. The rule behind the calls is not given here.

Experiments:
Type in all cases: functional
Hordeum vulgare [1] = experiment: Stimulation of root length of Hordeum vulgare (barley) at 0.1 mM after 5 days relative to untreated control
Triticum aestivum [2] = experiment: Stimulation of shoot length of Triticum aestivum (wheat) at 0.1 mM after 5 days relative to untreated control
Hordeum vulgare [3] = experiment: Stimulation of germination of Hordeum vulgare (barley) at 0.1 mM after 5 days relative to untreated control
Triticum aestivum [4] = experiment: Stimulation of root length of Triticum aestivum (wheat) at 0.1 mM after 5 days relative to untreated control
Triticum aestivum [5] = experiment: Stimulation of germination of Triticum aestivum (wheat) at 0.1 mM after 5 days relative to untreated control
Allium cepa [6] = experiment: Stimulation of root length of Allium cepa (onion) at 0.1 mM after 5 days relative to untreated control
Allium cepa [7] = experiment: Stimulation of shoot length of Allium cepa (onion) at 0.1 mM after 5 days relative to untreated control
Allium cepa [8] = experiment: Stimulation of germination of Allium cepa (onion) at 0.1 mM after 5 days relative to untreated control
Solanum lycopersicum [9] = experiment: Stimulation of shoot length of Solanum lycopersicum (tomato) at 0.1 mM after 5 days relative to untreated control
Solanum lycopersicum [10] = experiment: Stimulation of root length of Solanum lycopersicum (tomato) at 0.1 mM after 5 days relative to untreated control
Solanum lycopersicum [11] = experiment: Stimulation of germination of Solanum lycopersicum (tomato) at 0.1 mM after 5 days relative to untreated control
Lepidium sativum [12] = experiment: Stimulation of shoot length of Lepidium sativum at 0.1 mM after 5 days relative to untreated control
Lepidium sativum [13] = experiment: Stimulation of root length of Lepidium sativum at 0.1 mM after 5 days relative to untreated control
Lactuca sativa [14] = experiment: Stimulation of shoot length of Lactuca sativa cv. Roman (lettuce) at 0.1 mM after 5 days relative to untreated control
Lepidium sativum [15] = experiment: Stimulation of germination of Lepidium sativum at 0.1 mM after 5 days relative to untreated control
Lactuca sativa [16] = experiment: Stimulation of root length of Lactuca sativa cv. Roman (lettuce) at 0.1 mM after 5 days relative to untreated control
Lactuca sativa [17] = experiment: Stimulation of germination of Lactuca sativa cv. Roman (lettuce) at 0.1 mM after 5 days relative to untreated control
Lactuca sativa [18] = experiment: Stimulation of shoot length of Lactuca sativa cv. Nigra (lettuce) at 0.1 mM after 5 days relative to untreated control
Lactuca sativa [19] = experiment: Stimulation of root length of Lactuca sativa cv. Nigra (lettuce) at 0.1 mM after 5 days relative to untreated control
Lactuca sativa [20] = experiment: Stimulation of germination of Lactuca sativa cv. Nigra (lettuce) at 0.1 mM after 5 days relative to untreated control
Triticum aestivum [21] = experiment: Inhibition of shoot length of Triticum aestivum (wheat) at 0.1 mM after 5 days relative to untreated control
Hordeum vulgare [22] = experiment: Inhibition of germination of Hordeum vulgare (barley) at 0.1 mM after 5 days relative to untreated control; conditions: 120 h
Hordeum vulgare [23] = experiment: Inhibition of root length of Hordeum vulgare (barley) at 0.1 mM after 5 days relative to untreated control; conditions: 120 h
Hordeum vulgare [24] = experiment: Stimulation of shoot length of Hordeum vulgare (barley) at 0.1 mM after 5 days relative to untreated control
Lactuca sativa [25] = experiment: Inhibition of germination of Lactuca sativa cv. Nigra (lettuce) at 0.1 mM after 5 days relative to untreated control; conditions: 120 h
Lactuca sativa [26] = experiment: Inhibition of root length of Lactuca sativa cv. Nigra (lettuce) at 0.1 mM after 5 days relative to untreated control
Lactuca sativa [27] = experiment: Inhibition of shoot length of Lactuca sativa cv. Nigra (lettuce) at 0.1 mM after 5 days relative to untreated control; conditions: 120 h
Lactuca sativa [28] = experiment: Inhibition of germination of Lactuca sativa cv. Roman (lettuce) at 0.1 mM after 5 days relative to untreated control; conditions: 120 h
Lactuca sativa [29] = experiment: Inhibition of root length of Lactuca sativa cv. Roman (lettuce) at 0.1 mM after 5 days relative to untreated control; conditions: 120 h
Lactuca sativa [30] = experiment: Inhibition of shoot length of Lactuca sativa cv. Roman (lettuce) at 0.1 mM after 5 days relative to untreated control; conditions: 120 h
Lepidium sativum [31] = experiment: Inhibition of germination of Lepidium sativum at 0.1 mM after 5 days relative to untreated control
Lepidium sativum [32] = experiment: Inhibition of root length of Lepidium sativum at 0.1 mM after 5 days relative to untreated control
Lepidium sativum [33] = experiment: Inhibition of shoot length of Lepidium sativum at 0.1 mM after 5 days relative to untreated control; conditions: 120 h
Solanum lycopersicum [34] = experiment: Inhibition of germination of Solanum lycopersicum (tomato) at 0.1 mM after 5 days relative to untreated control; conditions: 120 h
Solanum lycopersicum [35] = experiment: Inhibition of root length of Solanum lycopersicum (tomato) at 0.1 mM after 5 days relative to untreated control; conditions: 120 h
Solanum lycopersicum [36] = experiment: Inhibition of shoot length of Solanum lycopersicum (tomato) at 0.1 mM after 5 days relative to untreated control; conditions: 120 h
Allium cepa [37] = experiment: Inhibition of germination of Allium cepa (onion) at 0.1 mM after 5 days relative to untreated control; conditions: 120 h
Allium cepa [38] = experiment: Inhibition of root length of Allium cepa (onion) at 0.1 mM after 5 days relative to untreated control
Allium cepa [39] = experiment: Inhibition of shoot length of Allium cepa (onion) at 0.1 mM after 5 days relative to untreated control; conditions: 120 h
Triticum aestivum [40] = experiment: Inhibition of germination of Triticum aestivum (wheat) at 0.1 mM after 5 days relative to untreated control
Triticum aestivum [41] = experiment: Inhibition of root length of Triticum aestivum (wheat) at 0.1 mM after 5 days relative to untreated control
Hordeum vulgare [42] = experiment: Inhibition of shoot length of Hordeum vulgare (barley) at 0.1 mM after 5 days relative to untreated control

`COC(=O)[C@@]1(C)CCC[C@@]2(C)[C@H]1CC=C1COC(=O)C[C@@H]12` was tested, and the Activity (Hordeum vulgare [1]) was 20%, the Activity (Triticum aestivum [2]) was “inactive” and the Activity (Hordeum vulgare [3]) was >40%. The Activity (Triticum aestivum [4]) was “inactive”, the Activity (Triticum aestivum [5]) was <20% and the Activity (Allium cepa [6]) was “inactive”. The Activity (Allium cepa [7]) was <20%, the Activity (Allium cepa [8]) was 20% and the Activity (Solanum lycopersicum [9]) was 20%. For the same molecule, the Activity (Solanum lycopersicum [10]) was >40%, the Activity (Solanum lycopersicum [11]) was <20% and the Activity (Lepidium sativum [12]) was <20%. The Activity (Lepidium sativum [13]) was “inactive”, the Activity (Lactuca sativa [14]) was <20% and the Activity (Lepidium sativum [15]) was “inactive”. For the same molecule, the Activity (Lactuca sativa [16]) was <20%, the Activity (Lactuca sativa [17]) was <20% and the Activity (Lactuca sativa [18]) was <20%. For the same molecule, the Activity (Lactuca sativa [19]) was <20%, the Activity (Lactuca sativa [20]) was <20% and the inhibition (Triticum aestivum [21]) was “inactive”. The inhibition at 100 µM (Hordeum vulgare [22]) was > 40%, the inhibition at 100 µM (Hordeum vulgare [23]) was 20% and the Activity (Hordeum vulgare [24]) was “inactive”. For the same molecule, the inhibition at 100 µM (Lactuca sativa [25]) was < 20%, the inhibition at 100 µM (Lactuca sativa [26]; 120 h) was < 20% and the inhibition at 100 µM (Lactuca sativa [27]) was < 20%. The inhibition at 100 µM (Lactuca sativa [28]) was < 20%, the inhibition at 100 µM (Lactuca sativa [29]) was < 20% and the inhibition at 100 µM (Lactuca sativa [30]) was < 20%. The inhibition (Lepidium sativum [31]) was “inactive”, the inhibition (Lepidium sativum [32]) was “inactive” and the inhibition at 100 µM (Lepidium sativum [33]) was < 20%. For the same molecule, the inhibition at 100 µM (Solanum lycopersicum [34]) was < 20%, the inhibition at 100 µM (Solanum lycopersicum [35]) was > 40% and the inhibition at 100 µM (Solanum lycopersicum [36]) was 20%. For the same molecule, the inhibition at 100 µM (Allium cepa [37]) was 20%, the inhibition (Allium cepa [38]) was “inactive” and the inhibition at 100 µM (Allium cepa [39]) was < 20%. For the same molecule, the inhibition at 100 µM (Triticum aestivum [40]; 120 h) was < 20%, the inhibition (Triticum aestivum [41]) was “inactive” and the inhibition (Hordeum vulgare [42]) was “inactive”.

`COC(=O)[C@@]1(C)CCC[C@]2(C)C3=CC(=O)O[C@H](C(C)C)C3=CC[C@@H]12` was tested, and the Activity (Hordeum vulgare [1]) was <20%, the Activity (Triticum aestivum [2]) was “inactive” and the Activity (Hordeum vulgare [3]) was 20%. The Activity (Triticum aestivum [4]) was <20%, the Activity (Triticum aestivum [5]) was “inactive” and the Activity (Allium cepa [6]) was 20%. The Activity (Allium cepa [7]) was 20%, the Activity (Allium cepa [8]) was 20% and the Activity (Solanum lycopersicum [9]) was <20%. For the same molecule, the Activity (Solanum lycopersicum [10]) was >40%, the Activity (Solanum lycopersicum [11]) was <20% and the Activity (Lepidium sativum [12]) was <20%. For the same molecule, the Activity (Lepidium sativum [13]) was 20%, the Activity (Lactuca sativa [14]) was <20% and the Activity (Lepidium sativum [15]) was “inactive”. For the same molecule, the Activity (Lactuca sativa [16]) was <20%, the Activity (Lactuca sativa [17]) was <20% and the Activity (Lactuca sativa [18]) was <20%. For the same molecule, the Activity (Lactuca sativa [19]) was “inactive”, the Activity (Lactuca sativa [20]) was <20% and the inhibition (Triticum aestivum [21]) was “inactive”. For the same molecule, the inhibition at 100 µM (Hordeum vulgare [22]) was 20%, the inhibition at 100 µM (Hordeum vulgare [23]) was < 20% and the Activity (Hordeum vulgare [24]) was “inactive”. For the same molecule, the inhibition at 100 µM (Lactuca sativa [25]) was < 20%, the inhibition (Lactuca sativa [26]) was “inactive” and the inhibition at 100 µM (Lactuca sativa [27]) was < 20%. The inhibition at 100 µM (Lactuca sativa [28]) was < 20%, the inhibition at 100 µM (Lactuca sativa [29]) was < 20% and the inhibition at 100 µM (Lactuca sativa [30]) was < 20%. The inhibition (Lepidium sativum [31]) was “inactive”, the inhibition at 100 µM (Lepidium sativum [32]; 120 h) was 20% and the inhibition at 100 µM (Lepidium sativum [33]) was < 20%. The inhibition at 100 µM (Solanum lycopersicum [34]) was < 20%, the inhibition at 100 µM (Solanum lycopersicum [35]) was > 40% and the inhibition at 100 µM (Solanum lycopersicum [36]) was < 20%. It also gave an inhibition at 100 µM (Allium cepa [37]) of 20%, an inhibition at 100 µM (Allium cepa [38]; 120 h) of 20% and an inhibition at 100 µM (Allium cepa [39]) of 20%. For the same molecule, the inhibition (Triticum aestivum [40]) was “inactive”, the inhibition at 100 µM (Triticum aestivum [41]; 120 h) was < 20% and the inhibition (Hordeum vulgare [42]) was “inactive”.
